# Assay results: patent US11958821B2, “Phenethylamine compounds salts, polymorphic forms and methods of use thereof” (Terran Biosciences Inc., priority 2021, dated 2024)
# Experiments:
# [1] = Dynamic vapor sorption (DVS) analysis with post-DVS XRPD; format: physicochemical; details: for Hygroscopicity by DVS: 25° C., 5 to 95% RH; for Post-DVS XRPD (form change): solids after DVS analysis; for Hygroscopic?: based on moisture uptake at 95% observed during DVS analysis
# Method: DVS analysis was carried out using a TA Instruments Q5000 Dynamic Vapor Sorption analyzer. The instrument was calibrated with standard weights and a sodium bromide standard for humidity. Approximately 5-25 mg of sample was loaded into a metal-coated quartz pan for analysis. The sample was analyzed at 25° C. with a maximum equilibration time of one hour in 10% relative humidity (RH) steps from 5 to 95% RH (adsorption cycle) and from 95 to 5% RH (desorption cycle). The movement from one step to the next occurred either after satisfying the equilibrium criterion of 0.01% weight change or, if the equilibrium criterion was not met, after one hour. The percent weight change values were calculated using Microsoft Excel®.
# [2] = Physical stability of MBDB salts at 40° C./75% RH; format: physicochemical
# Method: During the screen, a single crystal Maleate 1 of sufficient size and quality was obtained from a vapor diffusion experiment with ethanol and hexane. The crystal structure is reported elsewhere but the data confirmed the anhydrous/unsolved nature of the material. […] Two new crystalline forms of MBDB Maleate were observed during the screening designated as MBDB Maleate 2 and MBDB Maleate 3 (FIG. 96, 97). Additional characterization of these samples was conducted to better understand the nature of the materials produced, as shown below. MBDB Maleate 2 was generated once from a cooling crystallization from dioxane. The proton nuclear magnetic resonance (NMR) spectrum was consistent with a monomaleate salt of MBDB and contained residual dioxane. Only a limited amount of material was recovered so the only additional characterization that could be completed was differential scanning calorimetry (DSC). The DSC thermogram appears consistent with an anhydrous/unsolvated form with a likely melt at 96° C. (FIG. 100). […] An attempt was made to reproduce Maleate 2 using the same conditions and seeds of Maleate 2. PXRD analysis of the recovered solids however was consistent with Maleate 1. MBDB Maleate 3 was isolated from an evaporation experiment involving chloroform and ethyl acetate. NMR analysis of the material was consistent with a mono-maleate salt of MBDB. Thermal analysis was consistent with an anhydrous/unsolvated material with a likely melting point of 73° C. (FIG. 101). […] No additional characterization was completed on this sample due to the limited amount of material that was recovered.
# Male Sprague-Dawley rats [3] = assay: Rat elevated zero-maze study with racemic MBDB, R-MBDB, S-MBDB and chlordiazepoxide; details: for Dose showing a switch to an anxiolytic effect (magnitude of the reduction in SAPs): ip
# From the text: Two opposite quadrants are enclosed by Perspex walls on both the inner and the outer edges of the platform, while the remaining two opposite quadrants are open being enclosed only by a Perspex “lip”. Animals will show a preference for the closed areas, and avoidance of the open sections is assumed to stem from a rodent's natural aversion to open, exposed spaces. A reduction in the amount of activity on the open areas is considered to reflect an increase in anxiety. The ethologically-based behavior stretched attend postures (SAP) from closed to open quadrants is assessed as an index of anxiety. […] Animals
# (§1) Male Sprague-Dawley 200-250 g (Envigo UK) rats were used. Animals were group-housed (5 per cage; cage size: 40×40×20 cm) in a temperature-controlled environment (22±2° C.), under a 12 h light-dark cycle (lights on: 08:00 hours) for one week prior to testing. Food and water were freely available. Number of animals per group=5.
# (§2) The elevated 0-maze comprises a black Perspex annular platform (105 cm diameter, 10 cm width) elevated to 65 cm above ground level, divided equally into four quadrants. Two opposite quadrants are enclosed by clear red Perspex walls (27 cm high) on both the inner and outer edges of the platform, while the remaining two opposite quadrants are surrounded only by a Perspex “lip” (1 cm high) which serves as a tactile guide to animals on these open areas.
# Subjects were weighed and tail marked before being injected. After a specified pretreatment time, subjects were placed in a closed quadrant and a 5-min test period were recorded on videotape for subsequent analysis. The maze was cleaned with 5% methanol/water solution and dried thoroughly between test sessions. Behavioural measures comprise percentage time spent on the open areas (% TO) and frequency of stretched attend postures (SAP) from closed to open quadrants. Since the control groups were all treated identically with the same vehicle these were combined to increase power. The Chlordiazepoxide groups were also treated identically with the same dose so these were also combined to increase power. Animals are scored as being in the open area when all four paws were in an open quadrant and in the closed area only when all four paws have passed over the open-closed divide.
# Thirty min later at T=0, rats were individually placed in a closed arm of the zero-maze and behavior assessed by a “blind” observer using remote video monitoring over the subsequent 5 min. The animals were then removed and the maze carefully wiped with 5% methanol/water solution before the next test was begun.
# Thirty min later at T=0, rats were individually placed in a closed arm of the zero-maze and behavior was assessed by a “blind” observer using remote video monitoring over the subsequent 5 min. The animal were then removed and the maze carefully wiped with 5% methanol/water solution before the next test was begun.
# Thirty min later at T=0, rats were individually placed in a closed arm of the zero-maze and behavior was assessed by a “blind” observer using remote video monitoring over the subsequent 5 min.
# [4] = tested on: participants diagnosed with at least moderate post-traumatic stress disorder (PTSD); assay: Double-blind, randomized, placebo-controlled clinical trial of MBDB-assisted psychotherapy in PTSD; format: in vivo, human; details: for Change in CAPS-5 assessment: Study Conclusion, hydrochloride salt with psychotherapy; for Change in CAPS-5 assessment / Clinician-rated functional impairment score (SDS) / Depression (HAM-D): vs placebo; for Daytime sleepiness (ESS): human, in vivo; for Total dosage of drug to achieve significant mean reduction in CAPS-5: vs racemic MBDB-treated subgroup
# Method: A multicenter, randomized, double-blind, placebo-controlled trial is conducted to assess the efficacy and safety of MBDB-assisted psychotherapy versus psychotherapy with placebo control in participants diagnosed with at least moderate post-traumatic stress disorder (PTSD).
# This multicenter, randomized, double-blind, placebo-controlled trial is conducted at various sites in the United States with IRB approval from each study site. A flexible dose of MBDB hydrochloride salt or placebo, followed by a supplemental half-dose unless contraindicated by patient's previous response or medical history, is also administered during the Treatment Period with psychotherapy in at least 3 blinded monthly Experimental Sessions. The Supplemental Dose extends the duration of drug effects on the participants during an Experimental Session. MBDB test groups are further subdivided into specific groups receiving only racemic MBDB hydrochloride salt, S-MBDB hydrochloride salt, or R-MBDB hydrochloride salt. An optional Risk Evaluation and Mitigation Strategy (REMS) Protocol may be implemented for the racemic MBDB, S-MBDB, R-MBDB, and placebo-groups. The Treatment Period lasts for approximately 12 weeks. During the Treatment Period, each Experimental Session is followed by three Intervening Sessions of non-drug psychotherapy. Each Experimental Session involves an overnight stay. The Primary Outcome measure, the change in Clinician Administered PTSD Scale for DSM-5 (CAPS-5), is determined by a blinded Independent Rater (IR) pool multiple times throughout the study. The study consists of separate periods for each participant. Initially, prospective participants undergo a Screening Period involving an initial eligibility assessment, a medical history intake, informed consent, and enrollment of eligible participants. Next, a Preparation Period is undertaken for enrolled participants involving medication tapering and clinical baseline assessments to confirm each participant meets enrollment criteria. As part of the Preparation Period, a detailed assessment of co-morbidities to PTSD is recorded. Participants may remain on prescribed courses of selective serotonin reuptake inhibitor (SSRI) or serotonin and norepinephrine reuptake inhibitor (SNRI) treatment. Dosages and/or frequency of administration of a prescribed SSRI or SNRI may be adjusted to fit within study parameters. Participants may be required to taper a prescribed course of medication in order to maintain eligibility within the study. The Treatment Period consists of three monthly Experimental Sessions and associated Intervening Sessions of integrative behavioral psychotherapy. The Treatment Period lasts approximately 12 weeks. Following the Treatment Period is a Follow-up Period and Study Conclusion. During the Follow-up Period and Study Conclusion, participants complete 4 weeks with no study visits, followed by a Study Conclusion visit.
# This study compares the effects of three blinded Experimental Sessions of psychotherapy in combination with flexible doses of MBDB or placebo administered as described below. Non-drug preparatory and intervening psychotherapy sessions are also included. Patient's weight is determined for dosage calculation. Initial dose is 180 mg unless this will result in a dosage of less than 1.5 mg/kg of patient weight. Initial dose thereby adjusted upward in 50 mg increments to deliver the lowest dose possible of at least 1.5 mg/kg of patient weight. Initial dose for Experimental Session 2 and 3 is cumulative dose calculated by adding the initial dose plus REMS protocol dose used the previous Experimental Session for each patient.
# Randomization occurs prior to the initiation of Experimental Session 1. Each participant is provided the next randomized number in a sequence by a blinded study monitor. Participants are then randomized, according to a computer-generated randomization schedule, 1:1:1:1 to racemic MBDB, S-MBDB, R-MBDB, or placebo. […]
# Male Sprague-Dawley rats [5] = assay: Rat elevated zero-maze study with MDAI and chlordiazepoxide; format: in vivo; details: positive control, 6 mg/kg ip
# Method: Three rats from the vehicle group, 3 rats from the 2.5 mg/kg MDAI group, and 3 rats from the CDP group were tested on a separate day from the other rats.
# Male Sprague-Dawley rats [6] = assay: Rat elevated zero-maze study with racemic MDE, R-MDE, S-MDE and chlordiazepoxide; details: positive control, 6 mg/kg ip
# Method: A reduction in the amount of activity on the open areas is considered to reflect an increase in anxiety. The ethologically-based behavior, stretched attend postures (SAP) from closed to open quadrants, is assessed as an index of anxiety. […] Animals
# as §1, §2
# Subjects were weighed and tail marked before being injected. After a specified pretreatment time, subjects were placed in a closed quadrant and a 5-min test period were recorded on videotape for subsequent analysis. The maze was cleaned with 5% methanol/water solution and dried thoroughly between test sessions. Behavioural measures comprise percentage time spent on the open areas (% TO) and frequency of stretched attend postures (SAP) from closed to open quadrants. Animals are scored as being in the open area when all four paws were in an open quadrant and in the closed area only when all four paws have passed over the open-closed divide.
# Thirty min later at T=0, rats were individually placed in a closed arm of the zero-maze and behavior was assessed by a “blind” observer using remote video monitoring over the subsequent 5 min. The animal was then removed and the maze carefully wiped with 5% methanol/water solution before the next test was begun.
# Thirty min later at T=0, rats were individually placed in a closed arm of the zero-maze and behavior assessed by a “blind” observer using remote video monitoring over the subsequent 5 min. The animal was then removed and the maze carefully wiped with 5% methanol/water solution before the next test was begun.
# [7] = 5 mg/kg ip, continued anxiogenic effect
compound,measurement,setting,value
CCC(Cc1ccc2c(c1)OCO2)NC.O=C(O)CCC(=O)O (stereo not drawn) [MBDB succinate Form 2],Hygroscopicity by DVS,[1],moderately hygroscopic
same,Post-DVS XRPD (form change),[1],no form change
same,Physical Stability,[2]; after 1 day at 40° C./75% RH,No visible change
CC[C@@H](Cc1ccc2c(c1)OCO2)NC [S-MBDB],Frequency of stretched attend postures (SAP),Male Sprague-Dawley rats [3]; [7],reached significance
same,Frequency of stretched attend postures (SAP),Male Sprague-Dawley rats [3]; 10 mg/kg ip,rapid reduction in total SAPs
same,Frequency of stretched attend postures (SAP),Male Sprague-Dawley rats [3]; 15 mg/kg ip,reduction in the number of SAPs compared to lower doses
same,Frequency of stretched attend postures (SAP),Male Sprague-Dawley rats [3]; 30 mg/kg ip,decreased the frequency of SAPs as effectively as the benzodiazepine chlordiazepoxide
same,Magnitude of the reduction in SAPs among MBDB forms,Male Sprague-Dawley rats [3]; 30 mg/kg ip,greatest
same,Frequency of stretched attend postures (SAP),"Male Sprague-Dawley rats [3]; 30 mg/kg ip, listed as S MBDB",significantly reduced the number of SAPs
same,Dose showing a switch to an anxiolytic effect (magnitude of the reduction in SAPs),Male Sprague-Dawley rats [3],10 mg/kg
same,Change in CAPS-5 assessment,[4],significant mean reduction in CAPS-5 assessment compared to the placebo group
same,Daytime sleepiness (ESS),[4],significant improvement in lessening daytime sleepiness
same,Clinician-rated functional impairment score (SDS),[4],significant improvement in clinician-rated functional impairment score
same,Depression (HAM-D),[4],significant improvement depression
same,Adverse anxiogenic incidents,[4]; vs placebo-treated controls,without a significant increase in adverse anxiogenic incidents
same,Total dosage of drug to achieve significant mean reduction in CAPS-5,[4],lower total dosage of drug compared to the racemic MBDB-treated subgroup
CCC(Cc1ccc2c(c1)OCO2)NC.O=C(O)/C=C/C(=O)O (stereo not drawn) [Fumarate 1],Physical Stability,[2]; 40° C./75% RH overnight,No change
CC[C@H](Cc1ccc2c(c1)OCO2)NC [R-MBDB],Frequency of stretched attend postures (SAP),Male Sprague-Dawley rats [3]; 10 mg/kg ip,consistent level of SAPs similar to the 5 mg/kg
same,Frequency of stretched attend postures (SAP),Male Sprague-Dawley rats [3]; 15 mg/kg ip,reduction in the number of SAPs compared to lower doses
same,Frequency of stretched attend postures (SAP),Male Sprague-Dawley rats [3]; 30 mg/kg ip,decreased the frequency of SAPs as effectively as the benzodiazepine chlordiazepoxide
same,Frequency of stretched attend postures (SAP),"Male Sprague-Dawley rats [3]; 30 mg/kg ip, listed as R MBDB",significantly reduced the number of SAPs
same,Dose showing a switch to an anxiolytic effect (magnitude of the reduction in SAPs),Male Sprague-Dawley rats [3],15 mg/kg
same,Change in CAPS-5 assessment,[4],significant mean reduction in CAPS-5 assessment compared to the placebo group
same,Daytime sleepiness (ESS),[4],significant improvement in lessening daytime sleepiness
same,Clinician-rated functional impairment score (SDS),[4],significant improvement in clinician-rated functional impairment score
same,Depression (HAM-D),[4],significant improvement depression
same,Total dosage of drug to achieve significant mean reduction in CAPS-5,[4],lower total dosage of drug compared to the racemic MBDB-treated subgroup
"CNC1=Nc2ccc(Cl)cc2C(c2ccccc2)=[N+]([O-])C1 [CDP, Chlordiazepoxide, reference compound]",Frequency of HDIPS,Male Sprague-Dawley rats [5],trend towards increased
same,Percentage of time in the open arms (% TO),Male Sprague-Dawley rats [5],significant increase in the percentage of time in the open arms
same,Total line crossings,Male Sprague-Dawley rats [5],trend towards increased
same,Total open arm entries,Male Sprague-Dawley rats [5],trend towards increased
same,Frequency of stretched attend postures (SAP),"Male Sprague-Dawley rats [3]; positive control, 6 mg/kg ip",significant reduction in SAPs
same,Percentage of time in the open arms (% TO),"Male Sprague-Dawley rats [3]; positive control, 6 mg/kg ip",did not show significance over vehicle
same,Frequency of stretched attend postures (SAP),Male Sprague-Dawley rats [6],significant reduction in SAPs
same,Percentage of time spent in the open arms (% TO),Male Sprague-Dawley rats [6],significant increase in time in the open arms for the R MDE group and S MDE group only
CCC(Cc1ccc2c(c1)OCO2)NC.Cc1ccc(S(=O)(=O)O)cc1 (stereo not drawn) [Tosylate 1],Physical Stability,[2]; 40° C./75% RH overnight,No change
CCC(Cc1ccc2c(c1)OCO2)NC (racemic) [racemic MBDB],Frequency of stretched attend postures (SAP),Male Sprague-Dawley rats [3]; [7],reached significance
same,Frequency of stretched attend postures (SAP),Male Sprague-Dawley rats [3]; 10 mg/kg ip,consistent level of SAPs similar to the 5 mg/kg
same,Frequency of stretched attend postures (SAP),Male Sprague-Dawley rats [3]; 30 mg/kg ip,showed a trend toward significance
same,Dose showing a switch to an anxiolytic effect (magnitude of the reduction in SAPs),Male Sprague-Dawley rats [3],30 mg/kg
same,Change in CAPS-5 assessment,[4],significant mean reduction in CAPS-5 assessment compared to the placebo group
same,Daytime sleepiness (ESS),[4],significant improvement in lessening daytime sleepiness
same,Clinician-rated functional impairment score (SDS),[4],significant improvement in clinician-rated functional impairment score
same,Depression (HAM-D),[4],significant improvement depression
CCC(Cc1ccc2c(c1)OCO2)NC.O=C(O)CC(=O)O (stereo not drawn) [Malonate 1],Physical Stability,[2]; 40° C./75% RH overnight,No change
CCC(Cc1ccc2c(c1)OCO2)NC.O=S(=O)(O)O (stereo not drawn) [Sulfate 1],Physical Stability,[2]; 40° C./75% RH overnight,Deliquesced
CCC(Cc1ccc2c(c1)OCO2)NC.O=C(O)CC(O)(CC(=O)O)C(=O)O (stereo not drawn) [Citrate 1],Physical Stability,[2]; 40° C./75% RH overnight,Tacky solids
"CCC(Cc1ccc2c(c1)OCO2)NC.O=C(O)CCC(=O)O (single isomer, unassigned) [Succinate 2]",Hygroscopicity by DVS,[1],possible hydrate formation at high RH conditions
same,Hygroscopic?,[1],Moderately
same,Physical Stability,[2]; 40° C./75% RH overnight,No change
CCC(Cc1ccc2c(c1)OCO2)NC.O=P(O)(O)O (stereo not drawn) [Phosphate 1],Hygroscopicity by DVS,[1],hygroscopic
same,Hygroscopic?,[1],Hygroscopic
same,Post-DVS XRPD (form change),[1],no form change
same,Physical Stability,[2]; 40° C./75% RH overnight,No change
same,Physical Stability,[2]; after 1 day at 40° C./75% RH,No visible change
"CCC(Cc1ccc2c(c1)OCO2)NC.O=C(O)CCC(=O)O (single isomer, unassigned) [Succinate 1]",Physical Stability,[2]; 40° C./75% RH overnight,Tacky solids
CCC(Cc1ccc2c(c1)OCO2)NC.O=C(O)[C@@H](O)[C@H](O)[C@H](O)[C@@H](O)C(=O)O (stereo not drawn) [Galactarate 1],Physical Stability,[2]; 40° C./75% RH overnight,No change
